The subject of this assay is tyrosinase (Sigma T-7755). Briefly: tyrosinase assay: conversion of L-DOPA to DOPAquinone, monitored at 475 nm. The format is biochemical. The conditions noted are these: for Inhibition of tyrosinase enzyme step 2, 0.001% conc: ingredient at 0.001% conc; for Inhibition of tyrosinase enzyme step 2, 0.01% conc: ingredient at 0.01% conc; for Inhibition of tyrosinase enzyme step 2, 0.1% conc: ingredient at 0.1% conc; for Inhibition of tyrosinase enzyme step 2, 1% conc: ingredient at 1% conc; for INHIBITION OF ENZYME: comparison standard, 1% solution (solids present 1.0). How it is done: The tyrosinase assay was based on methods previously published (Mason, H. S., (1948) J. Biol. Chem. 172, 83-86; Dawson, C. R. and Magee, R. J. (1955) Methods in Enzymology II 817-827 (Editors-in-chief S. P. Colowick and N. O. Caplan); Lerner, A. B. (1955) ibid 827-831; Bergmeyer, U. H. (1983) Methods of Enzymatic Analysis (Published by Verlag Chemie, Weinheim)). The protocol was as follows, scaled for the approximately twenty sample determinations:
(a) A buffer solution of pH 6.5 was prepared by dissolving 1.4 9 disodium monohydrogen phosphate (Na2HPO4) and 1.4 g monopotassium dihydrogen phosphate (KH2PO4) in pure water to make 200 mL.
(b) An enzyme solution of either 1.0 mg or 3.0 mg tyrosinase (Sigma T-7755) was prepared in 30 mL buffer and stored at 2° C. until use.
(c) A substrate solution was prepared by dissolving 0.10 g L-DOPA (L-3,4-dihydroxyphenyl-alanine, Sigma D-9661) in 100 ML buffer.
(d) The unfettered enzyme reaction rate was measured by mixing together 0.5 mL buffer solution and 0.5 mL substrate solution in twin acrylate mini-cuvettes (path 2.0 mm), and after observing the stability of the mixture, mixing in 0.25 mL enzyme solution to one cuvette. The formation of red DOPAquinone was monitored spectrophotometrically at 475 nm, at times 0, 1, 2 and 3 minutes.
(e) The effect of added substances on the enzyme reaction rate was measured by mixing together 0.5 mL buffer solution, 0.5 mL substrate solution and 0.25 mL test substance (at 1% strength in 50:50 butyleneglycol:water) in twin acrylate mini-cuvette. The reaction was tracked spectrophotometrically at 475 nm, reading at 0, 1, 2 and 3 minutes.
(f) The effect of test substances on reaction rate was expressed as inhibition (I) where I=100−[100 (trt absorbance change, 3 min)/100(control absorbance change, 3 min)].
Concentrations of substrate, enzyme or test substance can be varied as appropriate.
(§1) This assay duplicates rate-controlling steps in the human metabolic pathway to skin pigmentation. Pure hydroquinone in 1% solution was employed as a comparison standard.
as §1

Take `O=C1O[C@H]([C@@H](O)CO)C(O)=C1O` [Ascorbic acid, L-ascorbic acid]: for the setting “Table 4”, the “Inhibition of tyrosinase enzyme step 2, 0.001% conc” value (“Inhibition … 0.001% conc” for short) is 23%; the “Inhibition of tyrosinase enzyme step 2, 0.01% conc” value (shortened to “Inhibition … 0.01% conc”) was 82%; the “Inhibition of tyrosinase enzyme step 2, 0.1% conc” value (shortened to “Inhibition … 0.1% conc”) is given as 100%; the “Inhibition of tyrosinase enzyme step 2, 1% conc” value is 100%. Besides, where the note is “Table 6”, the “Inhibition … 0.001% conc” value is 23%; the “Inhibition … 0.01% conc” value is 82%; the “Inhibition … 0.1% conc” value worked out at 100%; the “Inhibition of tyrosinase enzyme step 2, 1% conc” value is given as 100%.
Regarding `Oc1ccc(O)cc1` [Hydroquinone, 1,4-dihydroxybenzene], the “Enzymes reaction rate reduction @ 5 μg enzyme” value (5 μg enzyme, test substance at 1% strength) was found to be 65%. In addition, the “Enzymes reaction rate reduction @ 15 μg enzyme” value (15 μg enzyme, test substance at 1% strength) came to 55%. Further, where the note is “Table 3”, the “INHIBITION OF ENZYME” value is given as 58-62%. Moreover, under “Table 4”, the “Inhibition … 0.001% conc” value is less than 10%; the “Inhibition … 0.01% conc” value is recorded as less than 10%; the “Inhibition … 0.1% conc” value is on record as 31%; the “Inhibition of tyrosinase enzyme step 2, 1% conc” value came out at 60%. Besides, where the note is “Table 5”, the “INHIBITION OF ENZYME” value is given as 38-62%. For the same molecule, where the note is “Table 6”, the “Inhibition … 0.001% conc” value is less than 10%; the “Inhibition … 0.01% conc” value is less than 10%; the “Inhibition … 0.1% conc” value was 31%; the “Inhibition of tyrosinase enzyme step 2, 1% conc” value is listed as 60%.
In the case of `CC(O)CCO` (stereo not drawn) [butanediol, 1,3-butanediol], the “effect on tyrosinase in standard assays (in words)” value (constituents of TYROSTAT compositions) is on record as “slightly inhibitory”.

Source of the values: patent US6521267B1, “Tyrosinase inhibitors from plants” (Fytokem Prtoducts, Inc., priority 1998, dated 2003).
